As usually defined, the IC50 is the concentration that gives 50% inhibition.

In this experiment the test system is L1210 Leukämiezellen. The experiment is described as follows: Colony formation of L1210 leukemia cells in soft agar. Format: cell-based, Maus. Conditions: for IC50: Mus musculus; for zytostatische Wirksamkeit: statement in words, compared with Adriamycin. An excerpt: Die zytostatische Wirksamkeit der erfindungsgemäßen Verbindungen wurde anhand von L1210 Leukämiezellen der Maus getestet. Hierzu wurde die Koloniebildung von L1210 Leukämiezellen in Agarplatten herangezogen. Diese Methode dient zum Nachweis des Einflusses der Testsubstanzen auf das Wachstumsverhalten der Zellen nach Inkubation von 1 Stunde oder über mehrere Generationen. Bei einer Zelzykluszeit von 10-12 Stunden werden dabei in der Testzeit von 7 Tagen etwa 14 aufeinanderfolgende Generationen beobachtet. Die erfindungsgemäßen zytostatisch wirksamen Substanzen bewirken in diesem Test eine Reduktion der zu beobachtenden Koloniezahl gegenüber einer unbehandelten Kontrollprobe.
Einzelheiten des Testverfahrens ergeben sich aus der nachfolgenden Verfahrensweise zur Ermittlung der Koloniebildung.
Verfahrensweise zur Ermittlung der Koloniebildung von L1210 Leukämiezellen in Soft-Agar
500 Leukämiezellen pro Platte wurden mit unterschiedlichen Konzentrationen der Testsubstanz 1 Stunde bei 37°C inkubiert. Anschließend wurden die Zellen zweimal mit McCoy5A-Medium gewaschen und schließlich in Petrischalen nach Zugabe von 0,3 % Agar ausgegossen. Kontrollen wurden lediglich mit frischem Medium inkubiert. Anstelle der einstündigen Inkubation wurden in manchen Fällen unterschiedliche Konzentrationen und Testsubstanzen der oberen Agarschicht zugemischt, um so eine kontinuierliche Exposition der Zellen über die gesamte Inkubationszeit zu erreichen. Nach Erstarren des Agars wurden die Platten im Brutschrank 7 Tage bei 37°C inkubiert (5 Vol.-% CO₂, 94 % relative Luftfeuchtigkeit). Anschließend wurde die Zahl der entstandenen Kolonien mit einem Durchmesser von mehr als 60 µm gezählt. Die Ergebnisse wurden angegeben als Koloniezahl in behandelten Agarplatten in Prozent der unbehandelten Kontrolle. Aus der so erhaltenen Dosiswirkungskruve wurde die IC₅₀ als Maß für die Wirksamkeit der Substanz ermittelt. Die Ergebnisse für die hier beschriebenen Verbindungen im Vergleich zu Adriamycin sind in der nachfolgenden Tabelle 1 zusammengefaßt.

The mark [1] stands for this setting: L1210, 168 h, read-out: Dauerinkubation IC50.
[2] abbreviates: L1210, read-out: 1h-Inkubation IC50.
The mark [3] stands for this setting: L1210, 168 h, continuous exposure: substance mixed into upper agar layer for the whole 7-day incubation at 37°C, colonies > 60 µm counted, percent of untreated control, read-out: Dauerinkubation IC50.
[4] abbreviates: L1210, 1 h incubation with substance at 37°C, cells washed twice, then plated in 0,3 % agar for 7 days, colonies > 60 µm counted, read-out: 1h-Inkubation IC50.
The mark [5] stands for this setting: 1 h incubation with substance at 37°C, cells washed twice, then plated in 0,3 % agar for 7 days, colonies > 60 µm counted.
The mark [6] stands for this setting: continuous exposure: substance mixed into upper agar layer for the whole 7-day incubation at 37°C, colonies > 60 µm counted, percent of untreated control.

Values after ≈ are worked out from the molar mass of the structure shown. Like-named read-outs stand apart in the source and are kept apart here. A value given as a limit tells only on which side of the number the result lay.

With `COc1cccc2c1C(=O)c1c(O)c3c(c(O)c1C2=O)C[C@@](O)(C(=O)CO)C[C@@H]3O[C@H]1C[C@H](N)[C@H](O)[C@H](C)O1` [Adriamycin, reference compound], the IC50 is, setting by setting: under setting [1], 0.02 µg/mL (≈ 0.0368 µM); under setting [2], 0.04 µg/mL (≈ 0.0736 µM).

For the compound `CC[C@@]1(O)C[C@H](O)c2c(O)c3c(c(O)c2[C@H]1O[C@H]1C[C@H](NC(=O)C(F)(F)F)[C@@H](OC(=O)c2ccc([N+](=O)[O-])cc2)[C@H](C)O1)C(=O)c1cccc(O)c1C3=O` [Beispiel 8, 10-0-(4-0-Paranitrobenzoyl-3-N-trifluor-acetyl-α-L-acosaminyl)-β-rhodomycinon], the IC50 by setting is: under setting [3], greater than 1 µg/mL; under setting [4], greater than 1 µg/mL.

Turning to `CC[C@@]1(O)C[C@H](O)c2c(O)c3c(c(O)c2[C@H]1O[C@H]1C[C@H](NC(=O)C(F)(F)F)[C@H](OC(=O)c2ccc([N+](=O)[O-])cc2)[C@H](C)O1)C(=O)c1cccc(O)c1C3=O` [Beispiel 9, 10-0-(4-0-Paranitrobenzoyl-3-N-trifluoracetyl-α-L-daunosaminyl)-β-rhodomycinon], the IC50 is 0.6 µg/mL (≈ 0.789 µM) under setting [3] and greater than 10 µg/mL under setting [4].

In the case of `CC[C@@]1(O)C[C@H](O)c2c(O)c3c(c(O)c2[C@H]1O[C@H]1C[C@H](N)[C@@H](O)[C@H](C)O1)C(=O)c1cccc(O)c1C3=O` [Beispiel 10, 10-0-α-L-Acosaminyl-β-rhodomycinon], the IC50 reads like this: under setting [3], 0.9 µg/mL (≈ 1.75 µM); under setting [4], 6.5 µg/mL (≈ 12.6 µM).

On to `CC[C@@]1(O)C[C@H](O)c2c(O)c3c(c(O)c2[C@H]1O[C@H]1C[C@H](N)[C@H](O)[C@H](C)O1)C(=O)c1cccc(O)c1C3=O` [Beispiel 11, 10-0-α-L-Daunosaminyl-β-rhodomycinon], for which the IC50 is greater than 1 µg/mL under setting [3] and greater than 1 µg/mL under setting [4].

With `CC[C@@]1(O)C[C@H](O)c2c(O)c3c(c(O)c2[C@H]1O[C@H]1C[C@H](N(C)C)[C@@H](O)[C@H](C)O1)C(=O)c1cccc(O)c1C3=O` [Beispiel 12, 10-0-(3-N,N-Dimethyl-α-L-acosaminyl)-β-rhodomycinon], the IC50 by setting is: under setting [3], 0.5 µg/mL (≈ 0.92 µM); under setting [4], greater than 1 µg/mL.

As to `CC[C@@]1(O)C[C@H](O[C@H]2C[C@H](NC(=O)C(F)(F)F)[C@@H](OC(=O)c3ccc([N+](=O)[O-])cc3)[C@H](C)O2)c2c(O)c3c(c(O)c2[C@H]1OC(=O)C(F)(F)F)C(=O)c1cccc(O)c1C3=O` [Beispiel 13, 7-0-(4-0-Paranitrobenzoyl-3-N-trifluoracetyl-α-L-acosaminyl)-10-0-trifluoracetyl-β-rhodomycinon], the half-inhibitory concentration (IC50) reads like this: under setting [3], 0.03 µg/mL (≈ 0.035 µM); under setting [4], greater than 1 µg/mL.

Turning to `CC[C@@]1(O)C[C@H](O[C@H]2C[C@H](NC(=O)C(F)(F)F)[C@@H](OC(=O)c3ccc([N+](=O)[O-])cc3)[C@H](C)O2)c2c(O)c3c(c(O)c2[C@H]1O)C(=O)c1cccc(O)c1C3=O` [Beispiel 14, 7-0-(4-0-Paranitrobenzoyl-3-N-trifluoracetyl-α-L-acosaminyl)-β-rhodomycinon], the IC50 runs as follows: under setting [3], 0.024 µg/mL (≈ 0.0316 µM); under setting [4], greater than 1 µg/mL.

For the compound `CC[C@@]1(O)C[C@H](O[C@H]2C[C@H](N)[C@@H](O)[C@H](C)O2)c2c(O)c3c(c(O)c2[C@H]1O)C(=O)c1cccc(O)c1C3=O` [Beispiel 15, 7-0-α-L-Acosaminyl-β-rhodomycinon], the “zytostatische Wirksamkeit” value is “vergleichbar”. In addition, the IC50 under setting [3] is 0.004 µg/mL (≈ 0.00776 µM). Besides, under setting [4], the IC50 turned out to be 0.02 µg/mL (≈ 0.0388 µM).

For the compound `CC[C@@]1(O)C[C@H](O[C@H]2C[C@H](N(C)C)[C@@H](O)[C@H](C)O2)c2c(O)c3c(c(O)c2[C@H]1O)C(=O)c1cccc(O)c1C3=O` [Beispiel 16, 7-0-(3-N,N-Dimethyl-α-L-acosaminyl)-β-rhodomycinon], the “zytostatische Wirksamkeit” value is on record as “vergleichbar”. Also, the IC50 under setting [1] amounted to 0.006 µg/mL (≈ 0.011 µM). Further, under setting [2], the IC50 is 0.02 µg/mL (≈ 0.0368 µM).

With `CC[C@@]1(O)C[C@H](O[C@H]2C[C@H](NCC#N)[C@H](O)[C@H](C)O2)c2c(O)c3c(c(O)c2[C@H]1O)C(=O)c1cccc(O)c1C3=O` [Beispiel 17, 7-O-(3-N-Cyanomethyl-α-L-daunosaminyl)-β-rhodomycinon], the IC50 is 0.004 µg/mL (≈ 0.00721 µM) under setting [1] and 0.09 µg/mL (≈ 0.162 µM) under setting [2].

For the compound `CC[C@@]1(O)C[C@H](O[C@H]2C[C@H](NC(=O)C(F)(F)F)[C@H](OC(=O)c3ccc([N+](=O)[O-])cc3)[C@H](C)O2)c2c(O)c3c(c(O)c2[C@H]1OC(=O)C(F)(F)F)C(=O)c1cccc(O)c1C3=O` [Beispiel 18, 7-O-(4-O-Paranitrobenzoyl-3-N-trifluoracetyl-α-L-daunosaminyl)-10-O-trifluoracetyl-β-rhodomycinon], the IC50 under setting [3] came to 0.13 µg/mL (≈ 0.152 µM) and the IC50 under setting [4] was greater than 1 µg/mL.

As to `CC[C@@]1(O)C[C@H](O[C@H]2C[C@H](NC(=O)C(F)(F)F)[C@H](OC(=O)c3ccc([N+](=O)[O-])cc3)[C@H](C)O2)c2c(O)c3c(c(O)c2[C@H]1O)C(=O)c1cccc(O)c1C3=O` [Beispiel 19, 7-O-(4-O-Paranitrobenzoyl-3-N-trifluoracetyl-α-L-daunosaminyl)-β-rhodomycinon], the IC50 is, setting by setting: under setting [3], 0.11 µg/mL (≈ 0.145 µM); under setting [4], greater than 1 µg/mL.

In the case of `CC[C@@]1(O)C[C@H](O[C@H]2C[C@H](N)[C@H](O)[C@H](C)O2)c2c(O)c3c(c(O)c2[C@H]1OC1CCCCO1)C(=O)c1cccc(O)c1C3=O` (stereo partly drawn) [Beispiel 21, 7-O-α-L-Daunosaminyl-10-O-tetrahydropyranyl-β-rhodomycinon], under setting [5], the “1h-Inkubation IC50” value is greater than 1 µg/mL. Further, the “Dauerinkubation IC50” value under setting [6] came to 0.5 µg/mL.

Consider `CC[C@@]1(O)C[C@H](O[C@@H]2O[C@@H](C)[C@@H](OC(C)=O)[C@@H](OC(C)=O)[C@H]2I)c2c(O)c3c(c(O)c2[C@H]1OC1CCCCO1)C(=O)c1cccc(O)c1C3=O` (stereo partly drawn) [Beispiel 24, 7-O-(3,4-Di-O-acetyl-2,6-didesoxy-2-iodo-α-L-talopyranosyl)-10-O-tetrahydropyranyl-β-rhodomycinon], for which the “1h-Inkubation IC50” value under setting [5] was greater than 1 µg/mL. The “Dauerinkubation IC50” value under setting [6] was greater than 1 µg/mL.

As for `CC[C@@]1(O)C[C@H](O[C@@H]2O[C@@H](C)[C@H](OC(C)=O)[C@@H](OC(C)=O)[C@H]2I)c2c(O)c3c(c(O)c2[C@H]1OC1CCCCO1)C(=O)c1cccc(O)c1C3=O` (stereo partly drawn) [Beispiel 25, 7-O-(3,4-Di-O-acetyl-2,6-didesoxy-2-iodo-α-L-mannopyranosyl)-10-O-tetrahydropyranyl-β-rhodomycinon], the “1h-Inkubation IC50” value under setting [5] was greater than 1 µg/mL. The “Dauerinkubation IC50” value under setting [6] is greater than 1 µg/mL.

In the case of `CC[C@@]1(O)C[C@H](O[C@H]2C[C@H](NC(=O)C(F)(F)F)[C@H](OC(=O)c3ccc([N+](=O)[O-])cc3)[C@H](C)O2)c2c(O)c3c(c(O)c2[C@H]1O[C@@H]1C[C@H](NC(=O)C(F)(F)F)[C@H](OC(=O)c2ccc([N+](=O)[O-])cc2)[C@H](C)O1)C(=O)c1cccc(O)c1C3=O` [Beispiel 27, 7,10-Di-O-(4-O-paranitrobenzoyl-3-N-trifluoracetyl-α-L-daunosaminyl)-β-rhodomycinon], the “1h-Inkubation IC50” value under setting [5] was greater than 1 µg/mL. In addition, under setting [6], the “Dauerinkubation IC50” value is greater than 1 µg/mL.

As for `CC[C@@]1(O)C[C@H](O[C@H]2C[C@H](NC(=O)C(F)(F)F)[C@H](OC(C)=O)[C@H](C)O2)c2c(O)c3c(c(O)c2[C@H]1O[C@H]1C[C@H](NC(=O)C(F)(F)F)[C@H](OC(C)=O)[C@H](C)O1)C(=O)c1cccc(O)c1C3=O` [Beispiel 28, 7,10-Di-O-(4-O-acetyl-3-N-trifluoracetyl-α-L-daunosaminyl)-β-rhodomycinon], the IC50 under setting [3] was greater than 1 µg/mL and the IC50 under setting [4] was greater than 1 µg/mL.

In the case of `CC[C@@]1(O)C[C@H](O[C@H]2C[C@H](N)[C@H](O)[C@H](C)O2)c2c(O)c3c(c(O)c2[C@H]1O[C@H]1C[C@H](N)[C@H](O)[C@H](C)O1)C(=O)c1cccc(O)c1C3=O` [Beispiel 29, 7,10-Di-O-α-L-daunosaminyl-β-rhodomycinon], the IC50 runs as follows: under setting [3], greater than 10 µg/mL; under setting [4], greater than 1 µg/mL.

As to `CC[C@@]1(O)C[C@H](O[C@H]2C[C@H](NCC#N)[C@H](O)[C@H](C)O2)c2c(O)c3c(c(O)c2[C@H]1O[C@H]1C[C@H](NCC#N)[C@H](O)[C@H](C)O1)C(=O)c1cccc(O)c1C3=O` [Beispiel 30, 7,10-O-Di-(3-N-Cyanomethyl-α-L-daunosaminyl)-β-rhodomycinon], the IC50 is 0.5 µg/mL (≈ 0.692 µM) under setting [1] and greater than 1 µg/mL under setting [2].

As for `CC[C@@]1(O)C[C@H](O[C@H]2C[C@H](N)[C@@H](O)[C@H](C)O2)c2c(O)c3c(c(O)c2[C@H]1O[C@H]1C[C@H](N)[C@@H](O)[C@H](C)O1)C(=O)c1cccc(O)c1C3=O` [Beispiel 33, 7,10-Di-O-α-L-acosaminyl-β-rhodomycinon], the half-inhibitory concentration (IC50) under setting [3] is greater than 1 µg/mL and the IC50 under setting [4] was greater than 1 µg/mL.

For the origin of these results see patent EP0286926A2, “Semi-synthetic rhodomycins, method for their preparation and their use as cytostatics” (BEHRINGWERKE Aktiengesellschaft, priority 1987, dated 1988).
